US8236811B2, “Therapeutic use for treating of leukemia” (Sanofi, priority 2006, dated 2012)

Legend:
Assay type in all cases: in vivo, Scid CB-17 mice
CTV1 tumours (AML) = assay: Antitumor activity in mice bearing CTV1 tumours (AML); conditions: 25 mg/kg/injection IV/IP, days 17-23, 25-26/28-32, total dose 350 mg/kg, P 100 mg
Text: (§1) Scid CB-17 mice (supplied by Charles River, Lyon, France) are used. At the time of the randomization, the animals have an average weight of 20-22 g and are aged from 6 to 9 weeks.
(§2) The day before the first administration of a compound, the animals bearing tumors are classified into several groups. Only animals bearing two tumors which are palpable or of determined weight are selected and distributed at random into the treated groups and control groups. Each group is made up of 5 to 10 mice. At the start of the study, each cage is labeled with a card indicating the day of implantation of the tumour, the type of tumour, the compound tested and the mode of administration. […]
(§3) The volume of the tumors and its conversion into weight is estimated according to the formula: weight: (in mg)=(a×b^2)/2, where a and b are respectively the length and the width of the tumour (mm). The tumors are measured twice a week with calipers. […]
Two parameters for estimation of antitumor activity are used: log10 of the cells killed (Log cell kill) and T/C. • Calculation of log10 of the cells killed=(T−C)/3.32×Td, where (T−C) is the delay in tumour growth and Td the volume (and weight) doubling time of the tumour (expressed in days). […] The median weight of the tumors of each treated group is then determined. […]

KG1a tumors (AML) = assay: Antitumor activity in mice bearing KG1a tumors (AML)
Text: as §1
(§4) The day before the first administration of a compound, the animals bearing tumors are classified into several groups. Only animals bearing two tumors which are palpable or of determined weight are selected and distributed at random into the treated groups and control groups. Each group is made up of 5 to 10 mice. At the start of the study, each cage is labeled with a card indicating the day of implantation of the tumour, the type of tumour, the compound tested and the mode of administration.
(§5) The implantation of the tumors is effected as follows: after removal of the tumour from the donor mouse, the tumour is cut up into fragments 2 to 3 mm in diameter, placed in a saline phosphate buffer, and implanted bilaterally with an adapted trocar.
(§6) The volume of the tumors and its conversion into weight is estimated according to the formula: weight: (in mg)=(a×b^2)/2, where a and b are respectively the length and the width of the tumour (mm). The tumors are measured twice a week with calipers. In the following tables, P indicates the weight of the tumors at the start of treatment.
(§7) T is the median time in days for reaching a defined value (e.g. 1000 mg) in the treated group and C is the median time in days for reaching this same value in the control group. A value of log10 of the cells killed>0.7 is indicative of antitumor activity of the molecule. […] The median weight of the tumors of each treated group is then determined.
IV/IP is understood to mean administration by the intravenous route followed by an intraperitoneal route; here the transition is effected between day 15 and day 16. IV/oral is understood to mean administration by the intravenous route followed by an oral route; here the transition is effected between day 30 and day 31. […] On day 31, the compound is administered by the oral route until day 44.

K562 tumours (CML) = assay: Antitumor activity in mice bearing K562 tumours (CML); conditions: 25 mg/kg/injection IV/IP, days 4-11/12-25, total dose 550 mg/kg
Text: as §1, §4, §5, §6
(§8) Two parameters for estimation of antitumor activity are used: log10 of the cells killed (Log cell kill) and T/C. • Calculation of log10 of the cells killed=(T−C)/3.32×Td, where (T−C) is the delay in tumour growth and Td the volume (and weight) doubling time of the tumour (expressed in days). […] A value of log10 of the cells killed >2.8 is indicative of a very high antitumor activity of the molecule (J Liang et al, Invest New Drugs 2005; 23(3):213-24). • Calculation of T/C: the treated groups and the control groups are evaluated when the tumors of the control group reach approximately 1000 mg (median value of the group). The median weight of the tumors of each treated group is then determined. […]

Kasumi1 tumours (AML) = assay: Antitumor activity in mice bearing Kasumi1 tumours (AML); conditions: days 25-31, 33, 34, P 178 mg
Text: as §1, §4, §5, §6, §7
(§9) IV is understood to mean administration by the intravenous route.

CMLT1 tumours (CML) = assay: Antitumor activity in mice bearing CMLT1 tumours (CML); conditions: 20 mg/kg/injection IV/IP, days 3-7/10-14, 17-21, total dose 300 mg/kg
Text: as §1, §4, §5, §6, §8

EOL-1 tumours (AML) = assay: Antitumor activity in mice bearing EOL-1 tumours (AML); conditions: days 8-10, 12-17, 19, total dose 300 mg/kg, P 133-146 mg
Text: as §1, §2, §3
T is the median time in days for reaching a defined value (e.g. 1000 mg) in the treated group and C is the median time in days for reaching this same value in the control group. […] The median weight of the tumors of each treated group is then determined.

KG1 tumours (AML) = assay: Antitumor activity in mice bearing KG1 tumours (AML)
Text: as §1, §4, §5, §6
Two parameters for estimation of antitumor activity are used: log10 of the cells killed (Log cell kill) and T/C. • Calculation of log10 of the cells killed=(T−C)/3.32×Td, where (T−C) is the delay in tumour growth and Td the volume (and weight) doubling time of the tumour (expressed in days). T is the median time in days for reaching a defined value (e.g. 1000 mg) in the treated group and C is the median time in days for reaching this same value in the control group. A value of log10 of the cells killed>0.7 is indicative of antitumor activity of the molecule. A value of log10 of the cells killed >2.8 is indicative of a very high antitumor activity of the molecule (J Liang et al, Invest New Drugs 2005; 23(3):213-24). • Calculation of T/C: the treated groups and the control groups are evaluated when the tumors of the control group reach approximately 1000 mg (median value of the group). The median weight of the tumors of each treated group is then determined. The T/C value ((weight of the tumors of the treated groups/weight of the tumors of the control groups)×100) in percent is an indication of the antitumor efficacy: a T/C value less than or equal to 42% is indicative of anti-tumour activity according to the American National Cancer Institute (NCI). A T/C value less than 10% is representative of very high anti-tumour activity. • The number of mice no longer displaying tumors a long time after the last administration (TFS=tumour-free survival), and considered as cured, can also constitute a parameter of activity of the molecule. • Evaluation of the toxicity of the compound tested: a weight loss greater than or equal to 20% or the appearance of any lethality in connection with the compound is considered as an excessively toxic treatment. As examples, the results obtained with the compound N-[2-(2,1,3-benzothiadiazol-5-ylamino)-6-(2,6-dichlorophenyl)pyrido[2,3-d]pyrimidin-7-yl]-N′-(1,1-dimethyl-ethyl)-urea are given in the following Tables 1 to 7.
as §9
The cell line KG-1 (AML) is described by Koeffler et al., Science 200: 1153-1154 (1978), and supplied by DSMZ ACC No. 14.

[1] = 17 mg/kg/injection IV, days 19-38, total dose 255 mg/kg, P 127-130 mg

CC(C)(C)NC(=O)Nc1nc2nc(Nc3ccc4nsnc4c3)ncc2cc1-c1c(Cl)cccc1Cl [N-[2-(2,1,3-benzothiadiazol-5-ylamino)-6-(2,6-dichlorophenyl)pyrido[2,3-d]pyrimidin-7-yl]-N′-(1,1-dimethylethyl)-urea]
Log10 cells killed (CTV1 tumours (AML)): 1.7
T/C at 25 days (CTV1 tumours (AML); PEG400 22% Solutol 5% G5 73%): 1.6%
T/C at 22 days (KG1a tumors (AML); 17 mg/kg/injection IV/IP, days 5-13, 15/16, 18-20, 22, 24-26, 29, 31, total dose 340 mg/kg, P 91-98 mg, DMSO 5% Tween80 10% H2O 85%): 0%
Log10 cells killed (KG1a tumors (AML); 17 mg/kg/injection IV/IP, days 5-31, total dose 340 mg/kg, P 91-98 mg, DMSO 5% Tween80 10% H2O 85%): >>6
Log10 cells killed (KG1a tumors (AML); 25 mg/kg IV days 22-30 then 40 x 2 mg/kg oral days 31-44, total dose 225/1120 mg/kg, P 1000 mg, DMSO 5% Tween80 10% H2O 85%): >>6
Log10 cells killed (KG1a tumors (AML); 40 x 2 mg/kg (2 administrations per treatment day) oral, days 15-44, total dose 2400 mg/kg, P 147 mg): 3.0
T/C at 22 days (KG1a tumors (AML); 40 x 2 mg/kg (2 administrations per treatment day) oral, days 15-44, total dose 2400 mg/kg, P 147 mg, DMSO 5% Tween80 10% H2O 85%): 14.9%
tumour weight at the end of second treatment period (tumors no longer measurable) (KG1a tumors (AML); after IV days 22-30 (25 mg/kg) then oral route day 31 until day 44, P 1000 mg): < 63 mg
TFS (tumour-free survival) (KG1a tumors (AML); on day 120, 17 mg/kg/injection IV/IP, days 5-31, total dose 340 mg/kg, P 91-98 mg): 80% on
reduction in the tumour weight (KG1a tumors (AML); tumors at very advanced stage (1000 mg), IV route days 22 to 30 at 25 mg/kg): 80%
Log10 cells killed (K562 tumours (CML); P 63-80 mg): 4.2
T/C at 28 days (K562 tumours (CML); P 63-80 mg, DMSO 5% Tween80 10% H2O 85%): 0%
TFS (tumour-free survival) (K562 tumours (CML); on day 130): (43%
T/C at 28 days (Kasumi1 tumours (AML); 15 x 2 mg/kg (two administrations per treatment day) IV, total dose 255 mg/kg, PEG400 22% Solutol 5% G5 73%): 20%
Log10 cells killed (Kasumi1 tumours (AML); 15 x 2 mg/kg IV, total dose 255 mg/kg): 3
T/C at 28 days (Kasumi1 tumours (AML); 40 x 2 mg/kg (two administrations per treatment day) oral, total dose 680 mg/kg, Labrasol 21% Solutol 5% HCl 0.001N 74%): 17.5%
Log10 cells killed (Kasumi1 tumours (AML); 40 x 2 mg/kg oral, total dose 680 mg/kg): 2.4
Log10 cells killed (CMLT1 tumours (CML); P palpable ~30 mg): 1.5
T/C at 22 days (CMLT1 tumours (CML); P palpable ~30 mg, DMSO 5% Tween80 10% H2O 85%): 1%
TFS (tumour-free survival) (CMLT1 tumours (CML); on day 42): (50%
T/C at 14 days (EOL-1 tumours (AML); 15 x 2 mg/kg (2 administrations per treatment day) IP, PEG400 22% Solutol 5% G5 73%): 5.7%
Log10 cells killed (EOL-1 tumours (AML); 15 x 2 mg/kg IP): 3.1
T/C at 28 days (KG1 tumours (AML); 17 mg/kg/injection IV, days 19-28, 30, 32, 34, 36, 38, total dose 255 mg/kg, P 127-130 mg, DMSO 5% Tween80 10% H2O 85%): 0%
Log10 cells killed (KG1 tumours (AML); [1]): >6
TFS (tumour-free survival) (KG1 tumours (AML); [1]): (100%)
T/C at 28 days (KG1 tumours (AML); 40 x 2 mg/kg (2 administrations per treatment day) oral, days 18-24, 26, 28, 30, 32, 34, 36, 38, 40, total dose 1200 mg/kg, P 130-132 mg, Labrasol 21% Solutol 5% HCl 0.001N 74%): 0%
Log10 cells killed (KG1 tumours (AML); 40 x 2 mg/kg oral, days 18-40, total dose 1200 mg/kg, P 130-132 mg): 4.3
